The structures appear in SMILES notation.

One data set can be described thus: logP determination by HPLC (EEC directive 79/831 Annex V. A8). The settings on record: HPLC gradient method, acetonitrile/0.1% aqueous phosphoric acid; Table 1. In kind it is physicochemical. As for the experimental part: *) The logP values were determined in accordance with EEC directive 79/831 Annex V. A8 by HPLC (gradient method, acetonitrile/0.1% aqueous phosphoric acid)
On to `CC(C)CONc1c(-c2c(F)cccc2F)c(Cl)nc2ncnn12` [Example 8], for which the “logP*” value amounted to 2.78. Same read-out and setting: the same measure for `Fc1cc(F)c(-c2c(Cl)nc3ncnn3c2NOCc2nc(-c3ccccc3)cs2)c(F)c1` [Example 9]: 3.21; for `Fc1cc(F)c(-c2c(Cl)nc3ncnn3c2NOCc2ccc(C(F)(F)F)cc2)c(F)c1` [Example 10]: 3.38; for `Fc1cc(F)c(-c2c(Cl)nc3ncnn3c2NOCc2ccc(OC(F)(F)F)cc2)c(F)c1` [Example 11]: 3.54. On the same count and under the same terms, the same measure for `Fc1cc(F)c(-c2c(Cl)nc3ncnn3c2NOCc2ccccc2)c(F)c1` [Example 12]: 2.92. Same read-out and setting: the same measure for `Cc1ccc(CONc2c(-c3c(F)cc(F)cc3F)c(Cl)nc3ncnn23)cc1` [Example 13]: 3.25; for `Fc1cc(F)c(-c2c(Cl)nc3ncnn3c2NOC2CCCC2)c(F)c1` [Example 14]: 2.94.

For `Fc1cc(F)c(-c2c(Cl)nc3ncnn3c2NOCOc2ccc(Cl)nc2)c(F)c1` [Example 15], the “logP*” value came to 2.43. Same read-out and setting: the figure for `CON(C)c1c(-c2c(F)cc(F)cc2F)c(Cl)nc2ncnn12` [Example 16] is 2.63; for `CCN(N)c1c(-c2c(F)cc(F)cc2F)c(Cl)nc2ncnn12` [Example 17] it is 2.27.

As to `CNN(C)c1c(-c2c(F)cc(F)cc2F)c(Cl)nc2ncnn12` [Example 18], the “logP*” value was determined as 2.33. Still for that read-out and setting: the same measure for `Fc1cc(F)c(-c2c(Cl)nc3ncnn3c2NNCC(F)(F)F)c(F)c1` [Example 19]: 2.47; for `CCCN(N)c1c(-c2c(F)cc(F)cc2F)c(Cl)nc2ncnn12` [Example 20]: 2.58; for `CC(C)(C)NNc1c(-c2c(F)cc(F)cc2F)c(Cl)nc2ncnn12` [Example 21]: 2.86. Still for that read-out and setting: the figure for `N#CCCNNc1c(-c2c(F)cc(F)cc2F)c(Cl)nc2ncnn12` [Example 23] is 2.03.

As to `CC(NNc1c(-c2c(F)cc(F)cc2F)c(Cl)nc2ncnn12)C1CC1` (stereo not drawn) [Example 25], the “logP*” value is listed as 3.02.

As to `CC(C)=NN(CC1CCCCC1)c1c(-c2c(F)cc(F)cc2F)c(Cl)nc2ncnn12` [Example 26], the “logP*” value came out at 4.5.

As for `CC1(NNc2c(-c3c(F)cc(F)cc3F)c(Cl)nc3ncnn23)CCCCC1` [Example 27], the “logP*” value came out at 3.68. For the compound `CON(C)c1c(-c2c(F)cccc2F)c(Cl)nc2ncnn12` [Example 28], the “logP*” value is listed as 2.43. For `Fc1cc(F)c(-c2c(Cl)nc3ncnn3c2NNCC(F)(F)C(F)F)c(F)c1` [Example 29], the “logP*” value came to 2.58. On the same count and under the same terms, the same measure for `CONc1c(-c2c(F)cc(F)cc2F)c(Cl)nc2ncnn12` [Example 31]: 2.12; for `CONc1c(-c2c(F)cccc2F)c(Cl)nc2ncnn12` [Example 32]: 1.92; for `OCCNNc1c(-c2c(F)cc(F)cc2F)c(Cl)nc2ncnn12` [Example 33]: 1.68. The same measure, in the same setting: the same measure for `CC(C)ON(C)c1c(-c2c(F)cccc2F)c(Cl)nc2ncnn12` [Example 34]: 3.01; for `Fc1cc(F)c(-c2c(Cl)nc3ncnn3c2NNC2CCCCC2)c(F)c1` [Example 35]: 3.28.

As to `CCONc1c(-c2c(F)cc(F)cc2F)c(Cl)nc2ncnn12` [Example 40], the “logP*” value was found to be 2.33. On the same count and under the same terms, the figure for `CCC(C)ONc1c(-c2c(F)cc(F)cc2F)c(Cl)nc2ncnn12` (stereo not drawn) [Example 41] is 2.86; for `C=CCONc1c(-c2c(F)cc(F)cc2F)c(Cl)nc2ncnn12` [Example 42] it is 2.48. Same read-out and setting: the same measure for `CC(C)(C)ONc1c(-c2c(F)cc(F)cc2F)c(Cl)nc2ncnn12` [Example 43]: 2.75; for `CC(C)CNNc1c(-c2c(Cl)c(F)cc(C(F)(F)F)c2Cl)c(Cl)nc2ncnn12` [Example 44]: 3.89. For the compound `Fc1cccc(F)c1-c1c(Cl)nc2ncnn2c1NOCc1cccc(Cl)c1` [Example 46], the “logP*” value is 3.12. Same read-out and setting: the figure for `Fc1cccc(F)c1-c1c(Cl)nc2ncnn2c1NOCc1ccc(Cl)cc1` [Example 47] is 3.14. The same measure, in the same setting: the same measure for `CCC(C)ONc1c(-c2c(F)cccc2F)c(Cl)nc2ncnn12` (stereo not drawn) [Example 48]: 2.67; for `C=CCONc1c(-c2c(F)cccc2F)c(Cl)nc2ncnn12` [Example 50]: 2.28. Same read-out and setting: the figure for `Fc1cccc(F)c1-c1c(Cl)nc2ncnn2c1NOC1CCCCO1` (stereo not drawn) [Example 51] is 2.43; for `Fc1cc(F)c(-c2c(Cl)nc3ncnn3c2NNCC2CCCO2)c(F)c1` (stereo not drawn) [Example 52] it is 2.44. In the case of `CC(C)(O)CNNc1c(-c2c(F)cc(F)cc2F)c(Cl)nc2ncnn12` [Example 53], the “logP*” value worked out at 2.09. Regarding `Fc1cc(F)c(-c2c(Cl)nc3ncnn3c2NNCCN2CCOCC2)c(F)c1` [Example 54], the “logP*” value was 1.14.

Turning to `Fc1cc(F)c(-c2c(Cl)nc3ncnn3c2NNC2CCCC2)c(F)c1` [Example 55], the “logP*” value amounted to 2.98. Still for that read-out and setting: the same measure for `CC(C)CONc1c(-c2ccccc2F)c(Cl)nc2ncnn12` [Example 56]: 2.79. The same measure, in the same setting: the same measure for `CCONc1c(-c2ccccc2F)c(Cl)nc2ncnn12` [Example 57]: 2.13. Same read-out and setting: the same measure for `Fc1ccccc1-c1c(Cl)nc2ncnn2c1NOCc1ccc(C(F)(F)F)cc1` [Example 58]: 3.31. Consider `Fc1ccccc1-c1c(Cl)nc2ncnn2c1NOCc1ccccc1Cl` [Example 59], for which the “logP*” value worked out at 3.06. Consider `Fc1ccccc1-c1c(Cl)nc2ncnn2c1NOCc1cccc(Cl)c1` [Example 60], for which the “logP*” value came to 3.15. The same measure, in the same setting: the figure for `Fc1ccccc1-c1c(Cl)nc2ncnn2c1NOCc1ccc(Cl)cc1` [Example 61] is 3.16; for `Fc1ccc(CONc2c(-c3ccccc3F)c(Cl)nc3ncnn23)cc1` [Example 62] it is 2.82. With `CCC(C)ONc1c(-c2ccccc2F)c(Cl)nc2ncnn12` (stereo not drawn) [Example 63], the “logP*” value is recorded as 2.69. For the compound `C=CCONc1c(-c2ccccc2F)c(Cl)nc2ncnn12` [Example 64], the “logP*” value came out at 2.27.

Take `CC(C)(C)ONc1c(-c2ccccc2F)c(Cl)nc2ncnn12` [Example 65]: the “logP*” value is listed as 2.58.

For `Fc1ccccc1-c1c(Cl)nc2ncnn2c1NOC1CCCCO1` (stereo not drawn) [Example 66], the “logP*” value is reported as 2.46. Same read-out and setting: the same measure for `CONc1c(-c2ccccc2F)c(Cl)nc2ncnn12` [Example 67]: 1.89. Same read-out and setting: the figure for `CON(C)c1c(-c2ccccc2F)c(Cl)nc2ncnn12` [Example 68] is 2.33; for `CC(C)CONc1c(-c2c(F)c(F)c(F)c(F)c2F)c(Cl)nc2ncnn12` [Example 69] it is 3.42; for `CCONc1c(-c2c(F)c(F)c(F)c(F)c2F)c(Cl)nc2ncnn12` [Example 70] it is 2.73. The same measure, in the same setting: the figure for `Fc1c(F)c(F)c(-c2c(Cl)nc3ncnn3c2NOCc2ccc(Cl)cc2)c(F)c1F` [Example 71] is 3.62. Regarding `Fc1ccc(CONc2c(-c3c(F)c(F)c(F)c(F)c3F)c(Cl)nc3ncnn23)cc1` [Example 72], the “logP*” value was found to be 3.3. The same measure, in the same setting: the same measure for `CCC(C)ONc1c(-c2c(F)c(F)c(F)c(F)c2F)c(Cl)nc2ncnn12` (stereo not drawn) [Example 73]: 3.33; for `C=CCONc1c(-c2c(F)c(F)c(F)c(F)c2F)c(Cl)nc2ncnn12` [Example 74]: 2.89; for `CC(C)(C)ONc1c(-c2c(F)c(F)c(F)c(F)c2F)c(Cl)nc2ncnn12` [Example 75]: 3.24.

In the case of `Fc1c(F)c(F)c(-c2c(Cl)nc3ncnn3c2NOC2CCCCO2)c(F)c1F` (stereo not drawn) [Example 76], the “logP*” value is given as 3.04. Same read-out and setting: the figure for `CON(C)c1c(-c2c(F)c(F)c(F)c(F)c2F)c(Cl)nc2ncnn12` [Example 77] is 3.06; for `CC(C)CCNNc1c(-c2c(F)cc(F)cc2F)c(Cl)nc2ncnn12` [Example 78] it is 3.25; for `CC(C)CONc1c(-c2c(F)cc(F)cc2F)c(Cl)nc2ncnn12` [Example 79] it is 3. Still for that read-out and setting: the figure for `Fc1cc(F)c(-c2c(Cl)nc3ncnn3c2NOCc2cc(Cl)cc(Cl)c2)c(F)c1` [Example 80] is 3.73; for `Fc1cc(F)c(-c2c(Cl)nc3ncnn3c2NOCc2ccccc2Cl)c(F)c1` [Example 81] it is 3.22; for `Fc1cc(F)c(-c2c(Cl)nc3ncnn3c2NOCc2cccc(Cl)c2)c(F)c1` [Example 82] it is 3.27.

For `Fc1ccc(CONc2c(-c3c(F)cc(F)cc3F)c(Cl)nc3ncnn23)cc1` [Example 83], the “logP*” value came out at 2.99. `Fc1cc(F)c(-c2c(Cl)nc3ncnn3c2NOCc2cccc(C(F)(F)F)c2)c(F)c1` [Example 84]: the “logP*” value was determined as 3.39. Still for that read-out and setting: the figure for `CCCCONc1c(-c2c(F)cc(F)cc2F)c(Cl)nc2ncnn12` [Example 85] is 3.01; for `Fc1cc(F)c(-c2c(Cl)nc3ncnn3c2NOCc2c(Cl)cccc2Cl)c(F)c1` [Example 86] it is 3.32.

Consider `CN(C)Nc1c(-c2ccccc2F)c(Cl)nc2ncnn12` [Example 87], for which the “logP*” value worked out at 2.26.

Still in this data set, the particulars now being: HPLC gradient method, acetonitrile/0.1% aqueous phosphoric acid; Table 1; read-out: logP*.
For `NN(CC1CCCCC1)c1c(-c2c(F)cc(F)cc2F)c(Cl)nc2ncnn12` [Example 22], the chromatographic logP worked out at 3.67. The same measure, in the same setting: the figure for `C=CCNNc1c(-c2c(F)cc(F)cc2F)c(Cl)nc2ncnn12` [Example 24] is 2.48.

Staying with this data set, now noted: HPLC; preparation examples; read-out: HPLC: logP.
As for `CC(C)(C)ONc1c(-c2c(F)cccc2F)c(Cl)nc2ncnn12` [Example 2, 7-(tert-butoxyamino)-5-chloro-6-(2,6-difluorophenyl)[1,2,4)triazolo[1,5-a]pyrimidine], the chromatographic logP is 2.59. Same read-out and setting: the figure for `C[C@H](N(SC(F)(Cl)Cl)c1c(-c2c(F)cc(F)cc2F)c(Cl)nc2ncnn12)C(F)(F)F` [Example 3, 5-chloro-7-{{[dichloro(fluoro)methyl]sulphanyl}[(1S)-2,2,2-trifluoro-1-methylethyl]amino}-6-(2,4,6-trifluorophenyl)[1,2,4]triazolo[1,5-a]pyrimidine] is 4.74.

The values above are taken from patent US7189680B2, “5-halo-6-aryl[1,2,4]triazolo[1,5-a]pyrimidin-7-amines” (Bayer Cropscience AG, priority 2001, dated 2007).
